# Target: T1, mGlyT-1b (Mus musculus, UniProt P28571)
# T1 construct: host or cells: Flp-in-CHO
# T1 sequence (P28571 1-651 isoform P28571-2): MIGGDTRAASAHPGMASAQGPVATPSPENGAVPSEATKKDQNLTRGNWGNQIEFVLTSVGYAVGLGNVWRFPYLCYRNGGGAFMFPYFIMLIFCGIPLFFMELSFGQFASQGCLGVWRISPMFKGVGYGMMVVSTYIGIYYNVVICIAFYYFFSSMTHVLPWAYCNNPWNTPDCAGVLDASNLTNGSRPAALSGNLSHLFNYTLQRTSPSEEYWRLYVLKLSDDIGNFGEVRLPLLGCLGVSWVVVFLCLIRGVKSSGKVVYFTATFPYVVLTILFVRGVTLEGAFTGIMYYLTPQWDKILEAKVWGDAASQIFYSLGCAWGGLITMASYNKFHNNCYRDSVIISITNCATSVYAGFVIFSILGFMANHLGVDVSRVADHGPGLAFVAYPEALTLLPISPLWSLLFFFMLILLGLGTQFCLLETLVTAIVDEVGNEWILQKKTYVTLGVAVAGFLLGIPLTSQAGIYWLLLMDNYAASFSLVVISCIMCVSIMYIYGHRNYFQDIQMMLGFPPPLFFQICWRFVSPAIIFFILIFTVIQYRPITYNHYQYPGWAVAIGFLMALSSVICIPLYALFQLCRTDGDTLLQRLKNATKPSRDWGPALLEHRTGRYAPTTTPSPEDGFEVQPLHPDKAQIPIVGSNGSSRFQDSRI
# Assay: Glycine uptake inhibition assay (mGlyT-1b), [3H]-glycine uptake in Flp-in-CHO cells
# Format: cell-based
# Settings: Flp-in-CHO cells stably transfected with mGlyT1b cDNA, 20 min at 22° C. preincubation
# Protocol: Nutrient mixture F-12 (Gibco Life-technologies), fetal bovine serum (FBS) 5%, (Gibco life technologies), Penicillin/Streptomycin 1% (Gibco life technologies), Hygromycin 0.6 mg/ml (Gibco life technologies), Glutamine 1 mM Gibco life technologies) • Uptake buffer (UB): 150 mM NaCl, 10 mM Hepes-Tris, pH 7.4, […], 2.5 mM KCl, 2.5 mM MgSO4, 10 mM (+) D-glucose. • Flp-in™-CHO (Invitrogen Cat n° R758-07) cells stably transfected with mGlyT1b cDNA. Glycine Uptake Inhibition Assay (mGlyT-1b)
# On day 1 mammalian cells, (Flp-in™-CHO), transfected with mGlyT-1b cDNA, were plated at the density of 40,000 cells/well in complete F-12 medium, without hygromycin in 96-well culture plates. On day 2, the medium was aspirated and the cells were washed twice with uptake buffer (UB). The cells were then incubated for 20 min at 22° C. with either (i) no potential competitor, (ii) 10 mM non-radioactive glycine, (iii) a concentration of a potential inhibitor. A range of concentrations of the potential inhibitor was used to generate data for calculating the concentration of inhibitor resulting in 50% of the effect (e.g. IC50, the concentration of the competitor inhibiting glycine uptake of 50%). A solution was then immediately added containing [^3H]-glycine 60 nM (11-16 Ci/mmol) and 25 μM non-radioactive glycine. The plates were incubated with gentle shaking and the reaction was stopped by aspiration of the mixture and washing (three times) with ice-cold UB. The cells were lysed with scintillation liquid, shaken 3 hours and the radioactivity in the cells was counted using a scintillation counter.
row,SMILES,IC50
1,"COc1cc(C(F)(F)F)cc(SC)c1C(=O)NC(c1ccccc1)C1(N2CCCCC2)CCC1 (stereo not shown) [Example 49, 2-Methoxy-6-methylsulfanyl-N-[phenyl-(1-piperidin-1-yl-cyclobutyl)-methyl]-4-trifluoromethyl-benzamide]",0.0237 µM
2,"COc1cc(C(F)(F)F)cc(SC)c1C(=O)NC(c1ccccc1)C1(N(C)C)CCC1 (stereo not shown) [Example 51, N-[(1-Dimethylamino-cyclobutyl)-phenyl-methyl]-2-methoxy-6-methylsulfanyl-4-trifluoromethyl-benzamide]",0.0142 µM
3,COc1cc(C(F)(F)F)cc(SC)c1C(=O)NC(c1cc(F)cc(F)c1)C1(N2CCCC2)CCC1 (stereo not shown) [Example 53],0.0141 µM
4,O=C(NC(c1ccccc1)C1(N2CCCC2)CCC1)c1ccc(Cl)cc1C(F)(F)F (stereo not shown) [Example 54],0.0275 µM
5,"Cc1cc(Cl)ccc1C(=O)NC(c1ccccc1)C1(N2CCCC2)CCC1 (stereo not shown) [Example 63, 4-Chloro-2-methyl-N-[phenyl-(1-pyrrolidin-1-yl-cyclobutyl)-methyl]-benzamide]",0.0297 µM
6,"COc1cc(C(F)(F)F)cc(SC)c1C(=O)NC(c1ccccc1)C1(N2CCSCC2)CCC1 (stereo not shown) [Example 66, 2-Methoxy-6-methylsulfanyl-N-[phenyl-(1-thiomorpholin-4-yl-cyclobutyl)-methyl]-4-trifluoromethyl-benzamide]",0.0915 µM
7,"CSc1cc(C(F)(F)F)ccc1C(=O)NC(c1ccccc1)C1(N2CCN(C3CC3)CC2)CCC1 (stereo not shown) [Example 72, N-{[1-(4-Cyclopropyl-piperazin-1-yl)-cyclobutyl]-phenyl-methyl}-2-methylsulfanyl-4-trifluoromethyl-benzamide]",0.0494 µM
8,"COc1cc(C(F)(F)F)cc(SC)c1C(=O)NC(c1ccccc1)C1(N2CCN(C3CC3)CC2)CCC1 (stereo not shown) [Example 73, N-{[1-(4-Cyclopropyl-piperazin-1-yl)-cyclobutyl]-phenyl-methyl}-2-methoxy-6-methylsulfanyl-4-trifluoromethyl-benzamide]",0.0308 µM
9,"COc1cc(C(F)(F)F)cc(SC)c1C(=O)NC(c1ccccc1)C1(N2CC3(COC3)C2)CCC1 (stereo not shown) [Example 75, 2-Methoxy-6-methylsulfanyl-N-{[1-(2-oxa-6-aza-spiro[3.3]hept-6-yl)-cyclobutyl]-phenyl-methyl}-4-trifluoromethyl-benzamide]",0.0261 µM

# Continued by falling IC50, values first:
row,IC50,SMILES
1,0.0596 µM,"Cc1cc(F)ccc1C(=O)NC(c1ccccc1)C1(N2CCCC2)CCC1 (stereo not shown) [Example 57, 4-Fluoro-2-methyl-N-[phenyl-(1-pyrrolidin-1-yl-cyclobutyl)-methyl]-benzamide]"
2,0.0562 µM,"O=C(NC(c1ccccc1)C1(N2CCCC2)CCC1)c1ccc(C(F)(F)F)cc1-c1ccccc1 (stereo not shown) [Example 67, 5-Trifluoromethyl-biphenyl-2-carboxylic acid [phenyl-(1-pyrrolidin-1-yl-cyclobutyl)-methyl]-amide]"
3,0.0496 µM,"COc1cc(C(F)(F)F)cc(SC)c1C(=O)NC(c1ccccc1)C1(N2CCOCC2)CCC1 (stereo not shown) [Example 60, 2-Methoxy-6-methylsulfanyl-N-[(1-morpholin-4-yl-cyclobutyl)-phenyl-methyl]-4-trifluoromethyl-benzamide]"
4,0.0139 µM,"CSc1cc(C(F)(F)F)ccc1C(=O)NC(c1cccc(F)c1)C1(N2CCCC2)CCC1 (stereo not shown) [Example 55, N-[(3-Fluoro-phenyl)-(1-pyrrolidin-1-yl-cyclobutyl)-methyl]-2-methylsulfanyl-4-trifluoromethyl-benzamide]"
5,0.0135 µM,"COc1cc(C(F)(F)F)cc(SC)c1C(=O)NC(c1cccc(F)c1)C1(N2CCCC2)CCC1 (stereo not shown) [Example 56, N-[(3-Fluoro-phenyl)-(1-pyrrolidin-1-yl-cyclobutyl)-methyl]-2-methoxy-6-methylsulfanyl-4-trifluoromethyl-benzamide]"
6,0.0127 µM,"O=C(NC(c1ccccc1)C1(N2CCCC2)CCC1)c1ccc(C(F)(F)F)cc1Br (stereo not shown) [Example 52, 2-Bromo-N-[phenyl-(1-pyrrolidin-1-yl-cyclobutyl)-methyl]-4-trifluoromethyl-benzamide]"
7,0.0101 µM,"CSc1cc(C(F)(F)F)ccc1C(=O)NC(c1ccccc1)C1(N2CC3(COC3)C2)CCC1 (stereo not shown) [Example 74, 2-Methylsulfanyl-N-{[1-(2-oxa-6-aza-spiro[3.3]hept-6-yl)-cyclobutyl]-phenyl-methyl}-4-trifluoromethyl-benzamide]"
8,0.01 µM,"CSc1cc(C(F)(F)F)ccc1C(=O)NC(c1ccccc1)C1(N(C)C)CCC1 (stereo not shown) [Example 50, N-[(1-Dimethylamino-cyclobutyl)-phenyl-methyl]-2-methylsulfanyl-4-trifluoromethyl-benzamide]"
9,0.0095 µM,"CSc1cc(C(F)(F)F)cc(O)c1C(=O)NC(c1ccccc1)C1(N2CCCC2)CCC1 (stereo not shown) [Example 69, 2-Hydroxy-6-methylsulfanyl-N-[phenyl-(1-pyrrolidin-1-yl-cyclobutyl)-methyl]-4-trifluoromethyl-benzamide]"
10,0.0091 µM,"CCc1cc(C(F)(F)F)ccc1C(=O)NC(c1ccccc1)C1(N2CCCC2)CCC1 (stereo not shown) [Example 68, 2-Ethyl-N-[phenyl-(1-pyrrolidin-1-yl-cyclobutyl)-methyl]-4-trifluoromethyl-benzamide]"
